Measurements: ChEMBL document CHEMBL1201862, “PubChem BioAssay data set” (2004)
The source made the active and inactive calls.

Key:
[1] = target: T1, Coagulation factor XII (Homo sapiens, UniProt P00748); type: functional;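 further: activated factor XIIa alpha cleaving a fluorogenic AMC peptide substrate; inhibitor potency from loss of enzyme activity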
T1 sequence (P00748 whole entry): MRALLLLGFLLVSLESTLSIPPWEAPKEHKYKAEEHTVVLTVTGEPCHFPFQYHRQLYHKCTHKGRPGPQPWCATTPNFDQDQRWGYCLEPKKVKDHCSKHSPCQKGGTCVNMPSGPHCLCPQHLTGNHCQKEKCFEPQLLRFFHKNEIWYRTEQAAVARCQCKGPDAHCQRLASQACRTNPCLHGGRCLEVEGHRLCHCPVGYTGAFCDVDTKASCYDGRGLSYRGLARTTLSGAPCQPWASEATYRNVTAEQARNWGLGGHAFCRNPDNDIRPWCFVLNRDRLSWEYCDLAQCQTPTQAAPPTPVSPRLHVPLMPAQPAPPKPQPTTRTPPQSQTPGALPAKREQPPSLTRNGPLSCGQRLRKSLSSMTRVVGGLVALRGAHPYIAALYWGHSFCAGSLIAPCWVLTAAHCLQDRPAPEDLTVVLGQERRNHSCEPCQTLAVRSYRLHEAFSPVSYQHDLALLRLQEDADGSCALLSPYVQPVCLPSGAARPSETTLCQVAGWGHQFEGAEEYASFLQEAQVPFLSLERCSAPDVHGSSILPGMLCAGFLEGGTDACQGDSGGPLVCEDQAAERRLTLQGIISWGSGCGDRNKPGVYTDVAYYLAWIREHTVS

[2] = target: T2, Rac GTPase-activating protein 1 (Homo sapiens, UniProt Q9H0H5); experiment: MgcRacGAP GTPase-activating activity inhibitors, confirmation, biochemical, ADP Hunter fluorescence, primary and confirmatory (AID 624330); type: functional
T2 sequence (Q9H0H5 whole entry): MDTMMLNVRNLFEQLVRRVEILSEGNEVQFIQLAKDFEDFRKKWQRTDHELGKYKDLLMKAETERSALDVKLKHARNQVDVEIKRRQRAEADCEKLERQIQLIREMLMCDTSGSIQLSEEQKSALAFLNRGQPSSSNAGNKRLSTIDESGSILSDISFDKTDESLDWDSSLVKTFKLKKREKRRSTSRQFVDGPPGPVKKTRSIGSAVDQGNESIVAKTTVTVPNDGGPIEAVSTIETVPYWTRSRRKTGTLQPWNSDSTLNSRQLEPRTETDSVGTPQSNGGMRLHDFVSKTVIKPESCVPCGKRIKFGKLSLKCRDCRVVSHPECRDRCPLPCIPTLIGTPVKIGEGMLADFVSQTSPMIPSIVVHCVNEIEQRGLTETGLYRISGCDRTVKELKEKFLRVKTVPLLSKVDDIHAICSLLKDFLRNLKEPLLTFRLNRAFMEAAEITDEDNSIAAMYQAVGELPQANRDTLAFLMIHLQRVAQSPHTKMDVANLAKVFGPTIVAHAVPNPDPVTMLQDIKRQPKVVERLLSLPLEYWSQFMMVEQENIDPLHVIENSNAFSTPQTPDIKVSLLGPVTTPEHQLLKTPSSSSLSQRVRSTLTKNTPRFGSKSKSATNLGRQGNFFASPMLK

[3] = target: Troponin, cardiac muscle (Homo sapiens, UniProt P19429+P45379+P63316); experiment: Fluorescence-based biochemical high throughput dose response assay for activators of the calcium sensitivity of cardiac Regulated Thin Filaments (RTF). [Related pubchem assays (depositor defined):AID493008, AID493018, AID504382, AID504383]; type: protein-complex assay
[4] = target: Peroxisome proliferator-activated receptor gamma/Nuclear receptor coactivator 1 (Homo sapiens, UniProt P37231); experiment: (§1) TR-FRET dose response biochemical High Throughput Screening assay for agonists of the steroid receptor coactivator 1 (SRC-1) recruitment by the peroxisome proliferator-activated receptor gamma (PPAR gamma): non-selective agonists. [Related pubchem assays (depositor defined):AID1300, AID1808, AID504735, AID631]; type: protein assay
Sequence of Peroxisome proliferator-activated receptor gamma/Nuclear receptor coactivator 1 (P37231 whole entry): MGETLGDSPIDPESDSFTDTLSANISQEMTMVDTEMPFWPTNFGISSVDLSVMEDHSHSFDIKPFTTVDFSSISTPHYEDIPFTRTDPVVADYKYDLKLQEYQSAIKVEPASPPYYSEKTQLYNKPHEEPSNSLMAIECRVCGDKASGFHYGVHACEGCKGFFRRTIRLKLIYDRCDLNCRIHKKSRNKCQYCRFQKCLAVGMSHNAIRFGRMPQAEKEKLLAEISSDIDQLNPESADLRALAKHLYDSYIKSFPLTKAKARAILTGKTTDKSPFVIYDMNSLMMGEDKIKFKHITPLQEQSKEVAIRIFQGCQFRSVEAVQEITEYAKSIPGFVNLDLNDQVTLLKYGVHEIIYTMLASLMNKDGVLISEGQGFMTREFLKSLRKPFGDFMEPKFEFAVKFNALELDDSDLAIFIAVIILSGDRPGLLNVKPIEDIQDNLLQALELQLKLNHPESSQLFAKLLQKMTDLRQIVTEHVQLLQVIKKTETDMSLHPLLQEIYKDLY
Sequence of Peroxisome proliferator-activated receptor gamma/Nuclear receptor coactivator 1 (Q15788 whole entry, further chain): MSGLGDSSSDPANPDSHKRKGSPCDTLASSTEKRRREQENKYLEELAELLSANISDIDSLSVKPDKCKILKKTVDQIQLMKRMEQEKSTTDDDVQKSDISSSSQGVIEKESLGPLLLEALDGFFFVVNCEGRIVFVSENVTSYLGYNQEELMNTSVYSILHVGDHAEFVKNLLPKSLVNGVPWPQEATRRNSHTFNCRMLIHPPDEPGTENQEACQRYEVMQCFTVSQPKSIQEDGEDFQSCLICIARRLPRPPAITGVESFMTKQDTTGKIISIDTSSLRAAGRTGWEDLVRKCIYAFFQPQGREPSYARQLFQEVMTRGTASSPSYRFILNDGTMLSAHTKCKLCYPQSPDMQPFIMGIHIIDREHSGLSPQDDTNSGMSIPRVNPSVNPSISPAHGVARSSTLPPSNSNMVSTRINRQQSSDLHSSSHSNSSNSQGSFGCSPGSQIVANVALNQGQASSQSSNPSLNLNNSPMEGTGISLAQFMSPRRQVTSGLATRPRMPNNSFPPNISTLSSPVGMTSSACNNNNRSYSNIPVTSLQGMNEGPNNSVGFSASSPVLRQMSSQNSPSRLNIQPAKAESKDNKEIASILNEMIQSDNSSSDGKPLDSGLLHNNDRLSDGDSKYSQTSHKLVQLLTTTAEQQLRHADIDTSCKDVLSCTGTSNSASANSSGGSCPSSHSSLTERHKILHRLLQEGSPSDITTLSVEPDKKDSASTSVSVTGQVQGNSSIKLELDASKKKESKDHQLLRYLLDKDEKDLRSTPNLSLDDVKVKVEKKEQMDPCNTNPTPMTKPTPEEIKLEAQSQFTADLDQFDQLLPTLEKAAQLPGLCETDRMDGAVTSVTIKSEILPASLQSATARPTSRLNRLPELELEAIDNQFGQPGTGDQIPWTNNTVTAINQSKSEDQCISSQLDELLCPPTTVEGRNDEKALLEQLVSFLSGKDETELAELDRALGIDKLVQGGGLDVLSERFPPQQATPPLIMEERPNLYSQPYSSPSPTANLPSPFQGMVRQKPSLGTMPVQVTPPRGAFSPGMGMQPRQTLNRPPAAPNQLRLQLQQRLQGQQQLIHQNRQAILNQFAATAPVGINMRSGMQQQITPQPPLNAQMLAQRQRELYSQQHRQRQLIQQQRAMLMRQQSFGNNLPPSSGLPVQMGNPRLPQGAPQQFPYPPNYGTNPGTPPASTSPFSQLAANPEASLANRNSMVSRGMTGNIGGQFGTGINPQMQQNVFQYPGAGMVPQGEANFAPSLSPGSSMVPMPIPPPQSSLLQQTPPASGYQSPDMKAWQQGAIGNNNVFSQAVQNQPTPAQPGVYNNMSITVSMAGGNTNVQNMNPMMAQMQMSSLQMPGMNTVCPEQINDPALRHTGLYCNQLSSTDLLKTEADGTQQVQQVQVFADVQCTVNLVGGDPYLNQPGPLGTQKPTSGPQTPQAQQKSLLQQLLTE

[5] = target: Peroxisome proliferator-activated receptor gamma/Nuclear receptor coactivator 3 (Homo sapiens, UniProt P37231); experiment: as §1, with “3 (SRC-3)” for “1 (SRC-1)”, “assays: 1301 (Confirmation screen.), 1048 (Primary screen.)]” for “assays (depositor defined):AID1300, AID1808, AID504735, AID631]”; type: functional
[6] = target: Peroxisome proliferator-activated receptor gamma/Nuclear receptor coactivator 2 (Homo sapiens, UniProt P37231); experiment: TR-FRET dose response biochemical High Throughput Screening assay for agonists of the steroid receptor coactivator 2 (SRC-2) recruitment by the peroxisome proliferator-activated receptor gamma (PPAR gamma): non-selective agonists. [Related pubchem assays: 1297, 1032 ]; type: functional
Sequence of Peroxisome proliferator-activated receptor gamma/Nuclear receptor coactivator 2 (P37231 whole entry): as the sequence (P37231 whole entry) above
Sequence of Peroxisome proliferator-activated receptor gamma/Nuclear receptor coactivator 2 (Q15596 whole entry, further chain): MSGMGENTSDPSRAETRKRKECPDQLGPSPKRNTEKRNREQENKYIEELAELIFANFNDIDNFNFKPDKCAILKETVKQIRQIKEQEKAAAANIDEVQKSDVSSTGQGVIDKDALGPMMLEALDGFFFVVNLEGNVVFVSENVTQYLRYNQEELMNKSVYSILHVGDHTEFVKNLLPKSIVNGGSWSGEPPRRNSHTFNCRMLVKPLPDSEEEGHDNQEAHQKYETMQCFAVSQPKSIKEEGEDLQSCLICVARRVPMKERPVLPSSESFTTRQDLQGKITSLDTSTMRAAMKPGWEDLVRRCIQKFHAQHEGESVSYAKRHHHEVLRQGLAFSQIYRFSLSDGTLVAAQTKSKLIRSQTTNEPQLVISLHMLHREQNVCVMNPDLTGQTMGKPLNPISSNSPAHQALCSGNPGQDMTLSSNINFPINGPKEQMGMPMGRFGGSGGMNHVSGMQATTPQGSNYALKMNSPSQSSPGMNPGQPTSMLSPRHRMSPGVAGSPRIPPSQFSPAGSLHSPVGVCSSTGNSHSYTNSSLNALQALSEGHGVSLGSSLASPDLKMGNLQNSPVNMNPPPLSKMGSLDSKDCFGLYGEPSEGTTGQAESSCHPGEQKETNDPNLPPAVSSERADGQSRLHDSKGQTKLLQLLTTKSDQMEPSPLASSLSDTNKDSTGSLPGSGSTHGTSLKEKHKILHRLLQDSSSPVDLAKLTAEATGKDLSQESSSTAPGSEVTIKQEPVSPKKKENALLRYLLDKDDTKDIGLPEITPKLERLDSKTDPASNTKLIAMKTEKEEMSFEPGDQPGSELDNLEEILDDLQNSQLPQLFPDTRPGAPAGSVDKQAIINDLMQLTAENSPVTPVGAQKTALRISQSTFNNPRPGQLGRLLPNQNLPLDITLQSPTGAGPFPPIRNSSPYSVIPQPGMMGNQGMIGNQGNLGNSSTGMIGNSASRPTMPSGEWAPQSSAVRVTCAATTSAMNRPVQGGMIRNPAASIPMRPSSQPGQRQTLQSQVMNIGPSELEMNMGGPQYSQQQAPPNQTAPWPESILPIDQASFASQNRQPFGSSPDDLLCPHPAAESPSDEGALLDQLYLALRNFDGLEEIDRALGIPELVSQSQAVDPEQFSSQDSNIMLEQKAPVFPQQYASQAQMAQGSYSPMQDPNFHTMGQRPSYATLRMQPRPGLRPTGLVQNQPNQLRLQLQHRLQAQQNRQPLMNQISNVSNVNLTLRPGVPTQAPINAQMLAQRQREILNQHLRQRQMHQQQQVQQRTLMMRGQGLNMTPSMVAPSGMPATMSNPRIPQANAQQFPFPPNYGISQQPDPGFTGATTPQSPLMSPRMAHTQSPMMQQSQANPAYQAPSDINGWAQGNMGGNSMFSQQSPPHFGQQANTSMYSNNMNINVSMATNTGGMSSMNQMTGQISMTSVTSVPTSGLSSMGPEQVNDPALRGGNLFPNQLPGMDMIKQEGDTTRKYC

[7] = Luminescence Cell-Based Dose Retest to Confirm Inhibitors of Cancer Stem Cells. [Related pubchem assays (depositor defined):AID2717, AID2721]; type: functional, Homo sapiens; details: Homo sapiens
[8] = target: T3, Hexokinase HKDC1 (Homo sapiens, UniProt Q2TB90); experiment: HKDC1 hexokinase activators, dose response, biochemical, W721R variant (AID 504730); type: functional
T3 sequence (Q2TB90 whole entry): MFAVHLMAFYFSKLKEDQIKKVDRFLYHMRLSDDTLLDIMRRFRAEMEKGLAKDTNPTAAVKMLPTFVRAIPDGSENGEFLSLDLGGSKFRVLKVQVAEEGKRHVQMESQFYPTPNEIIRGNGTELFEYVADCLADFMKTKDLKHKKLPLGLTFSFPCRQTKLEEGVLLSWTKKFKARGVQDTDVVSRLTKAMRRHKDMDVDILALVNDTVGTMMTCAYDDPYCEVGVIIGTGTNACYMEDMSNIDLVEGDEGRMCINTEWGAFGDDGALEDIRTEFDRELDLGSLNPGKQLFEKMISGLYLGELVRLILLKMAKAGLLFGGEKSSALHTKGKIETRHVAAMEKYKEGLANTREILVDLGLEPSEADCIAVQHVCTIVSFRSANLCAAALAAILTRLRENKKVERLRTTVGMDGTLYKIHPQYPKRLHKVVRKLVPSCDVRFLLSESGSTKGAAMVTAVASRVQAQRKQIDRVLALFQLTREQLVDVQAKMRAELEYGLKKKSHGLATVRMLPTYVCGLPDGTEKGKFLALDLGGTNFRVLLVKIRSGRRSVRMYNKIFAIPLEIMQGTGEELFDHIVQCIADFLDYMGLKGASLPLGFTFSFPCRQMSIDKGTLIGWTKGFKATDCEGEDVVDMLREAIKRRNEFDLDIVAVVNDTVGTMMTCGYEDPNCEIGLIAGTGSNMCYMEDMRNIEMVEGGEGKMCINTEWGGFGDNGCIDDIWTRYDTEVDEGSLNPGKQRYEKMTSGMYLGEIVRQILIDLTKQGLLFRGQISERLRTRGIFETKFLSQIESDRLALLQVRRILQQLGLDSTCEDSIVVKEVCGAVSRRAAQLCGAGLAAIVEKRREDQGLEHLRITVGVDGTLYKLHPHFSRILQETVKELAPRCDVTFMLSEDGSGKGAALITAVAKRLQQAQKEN

[9] = target: T4, Hexokinase-1 (Homo sapiens, UniProt P19367); experiment: hexokinase 1 activators, dose response, selectivity assay for HKDC1 activator project, biochemical (AID 504762); type: functional
T4 sequence (P19367 whole entry): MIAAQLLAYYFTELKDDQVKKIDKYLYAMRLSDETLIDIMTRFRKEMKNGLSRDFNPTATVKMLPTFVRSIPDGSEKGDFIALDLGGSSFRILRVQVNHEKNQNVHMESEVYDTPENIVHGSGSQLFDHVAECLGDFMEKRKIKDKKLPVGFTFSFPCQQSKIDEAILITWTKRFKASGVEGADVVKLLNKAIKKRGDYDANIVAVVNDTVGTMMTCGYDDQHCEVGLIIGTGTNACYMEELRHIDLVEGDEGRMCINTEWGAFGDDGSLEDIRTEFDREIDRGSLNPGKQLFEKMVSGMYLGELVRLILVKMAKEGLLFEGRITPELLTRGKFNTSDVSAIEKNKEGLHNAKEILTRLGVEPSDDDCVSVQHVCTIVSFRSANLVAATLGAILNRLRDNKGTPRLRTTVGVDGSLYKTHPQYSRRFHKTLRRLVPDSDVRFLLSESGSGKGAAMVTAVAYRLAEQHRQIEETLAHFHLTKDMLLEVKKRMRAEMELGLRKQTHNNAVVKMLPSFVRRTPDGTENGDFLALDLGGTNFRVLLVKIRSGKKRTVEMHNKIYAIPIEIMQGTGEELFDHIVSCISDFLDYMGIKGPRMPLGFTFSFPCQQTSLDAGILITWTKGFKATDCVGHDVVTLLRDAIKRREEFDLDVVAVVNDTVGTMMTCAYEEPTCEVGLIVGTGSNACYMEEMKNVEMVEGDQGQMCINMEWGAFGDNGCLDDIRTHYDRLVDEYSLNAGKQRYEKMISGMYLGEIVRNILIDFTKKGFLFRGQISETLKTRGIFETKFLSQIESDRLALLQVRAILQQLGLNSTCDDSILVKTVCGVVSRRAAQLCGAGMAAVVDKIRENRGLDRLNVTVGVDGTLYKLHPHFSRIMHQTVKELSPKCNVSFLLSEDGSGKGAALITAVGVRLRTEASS

[10] = test system: INS1; experiment: beta cell apoptosis inhibitors, cytokine rescue, dose response, luminescence, retest (AID 449756); type: functional, cell-based; details: Rattus norvegicus;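 further: cell death triggered by IL-1 beta plus TNF-alpha plus IFN-gamma mixture; protective hits raise ATP signal compared with cytokine alone wells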
[11] = target: T5, Heat shock factor protein 1 (Mus musculus, UniProt P38532); experiment: inhibition of MG132-induced HSE-luciferase signal, confirmation, cell-based, NIH3T3, luminescence, dose retest (AID 2382); type: functional;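 further: NIH3T3 fibroblasts with HSF1-driven luciferase reporter stressed by proteasome inhibitor MG132; luminescence from HSF1-driven luciferase expression after 8 hours of MG132 stress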
T5 sequence (P38532 whole entry): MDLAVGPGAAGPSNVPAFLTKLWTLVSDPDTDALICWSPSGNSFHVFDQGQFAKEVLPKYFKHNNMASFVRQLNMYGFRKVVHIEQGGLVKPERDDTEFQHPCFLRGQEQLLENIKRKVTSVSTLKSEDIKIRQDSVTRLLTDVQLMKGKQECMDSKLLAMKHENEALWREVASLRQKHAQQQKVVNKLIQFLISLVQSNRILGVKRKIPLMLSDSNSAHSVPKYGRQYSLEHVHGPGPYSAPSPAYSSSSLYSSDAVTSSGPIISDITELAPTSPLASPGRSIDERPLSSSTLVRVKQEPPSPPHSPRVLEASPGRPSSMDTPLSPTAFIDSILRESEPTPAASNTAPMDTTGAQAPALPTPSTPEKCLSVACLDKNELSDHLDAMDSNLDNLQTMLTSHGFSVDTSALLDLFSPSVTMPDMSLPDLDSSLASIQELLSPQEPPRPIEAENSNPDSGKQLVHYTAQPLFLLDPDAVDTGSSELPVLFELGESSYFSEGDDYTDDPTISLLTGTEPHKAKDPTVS

[12] = target: DNA damage-inducible transcript 3 protein (Mus musculus, UniProt P35639); type: functional, Cricetulus griseus
Sequence of DNA damage-inducible transcript 3 protein (P35639 whole entry): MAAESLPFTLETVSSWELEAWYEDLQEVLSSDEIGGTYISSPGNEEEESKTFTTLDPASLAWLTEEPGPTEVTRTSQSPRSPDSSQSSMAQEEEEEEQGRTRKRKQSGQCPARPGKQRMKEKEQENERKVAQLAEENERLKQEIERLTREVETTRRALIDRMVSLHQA

[13] = target: X-box-binding protein 1 (Homo sapiens, UniProt P17861); type: functional, Cricetulus griseus;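 further: confirmatory dose-response counter-screen serving a CHOP assay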
Sequence of X-box-binding protein 1 (P17861 whole entry): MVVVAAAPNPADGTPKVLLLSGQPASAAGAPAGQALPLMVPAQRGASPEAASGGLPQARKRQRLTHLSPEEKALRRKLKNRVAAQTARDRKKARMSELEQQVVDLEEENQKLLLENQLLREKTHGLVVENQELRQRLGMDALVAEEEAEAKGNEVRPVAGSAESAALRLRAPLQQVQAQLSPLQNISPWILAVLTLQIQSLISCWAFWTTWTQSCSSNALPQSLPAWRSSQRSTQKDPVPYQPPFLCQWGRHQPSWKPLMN

[14] = target: T6, Endoribonuclease toxin MazF (Escherichia coli K-12, UniProt P0AE70); experiment: MazF toxin RNase activators, dose response, biochemical, fluorescence, single-stranded RNA substrate, uHTS hits (AID 588481); type: functional
T6 sequence (P0AE70 whole entry): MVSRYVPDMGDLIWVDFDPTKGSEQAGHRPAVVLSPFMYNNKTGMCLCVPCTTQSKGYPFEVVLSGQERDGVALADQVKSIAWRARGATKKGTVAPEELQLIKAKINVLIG

[15] = target: T6, Endoribonuclease toxin MazF; experiment: fluorescent RNA oligo signal without MazF, dose response, counter-screen for MazEF activator project, biochemical, fluorescence, single-stranded RNase substrate (AID 588502); type: functional
[16] = inhibitors of HIV Env-driven cell fusion, dose response, cherry-pick (AID 652057); type: functional, cell-based
[17] = ZM109 Env clade C HIV-1 fusion inhibitors, dose response, HeLa effector, CEM target cells, luciferase, cherry-pick (AID 652058); type: functional, cell-based
[18] = off-target signal loss in HeLa-CEM21 co-culture – HeLa F-luc CTL cells, cherry-picked, counter-screen for HIV-1 Env fusion inhibitor project, dose response (AID 652040); type: functional, cell-based;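 further: potency for signal decrease marking cytotoxic or nonspecific inhibition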
[19] = inhibitors of clade B AD8 Env fusion, dose response, cell-based, cherry-pick (AID 652062); type: functional;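 further: luciferase signal from cell-cell fusion driven by HIV-1 clade B AD8 Env; potency is for inhibitors of fusion seen as a drop in luminescence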
[20] = target: Luciferin 4-monooxygenase (Photinus pyralis, UniProt P08659); experiment: firefly luciferase enzyme inhibitors, dose response, biochemical, luminescence (AID 1891)
[21] = target: DNA dC->dU-editing enzyme APOBEC-3G (Homo sapiens, UniProt Q9HC16); experiment: Dose Response confirmation of small molecule APOBEC3G DNA Deaminase Inhibitors via a fluorescence-based single-stranded DNA deaminase assay. [Related pubchem assays (depositor defined):AID493012, AID493028]; type: functional
Sequence of DNA dC->dU-editing enzyme APOBEC-3G (Q9HC16 whole entry): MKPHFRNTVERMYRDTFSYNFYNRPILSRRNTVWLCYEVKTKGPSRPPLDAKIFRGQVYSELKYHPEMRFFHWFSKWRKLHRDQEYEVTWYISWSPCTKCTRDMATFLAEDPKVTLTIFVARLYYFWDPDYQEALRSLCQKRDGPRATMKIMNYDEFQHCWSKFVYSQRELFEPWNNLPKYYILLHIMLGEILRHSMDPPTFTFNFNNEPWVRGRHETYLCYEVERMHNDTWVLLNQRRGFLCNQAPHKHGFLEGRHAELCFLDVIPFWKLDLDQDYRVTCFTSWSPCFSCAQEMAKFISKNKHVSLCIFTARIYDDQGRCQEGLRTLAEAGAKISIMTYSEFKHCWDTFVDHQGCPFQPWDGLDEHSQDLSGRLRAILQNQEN

[22] = target: Cytochrome P450 2C9 (Homo sapiens, UniProt P11712)

COC(=O)c1ccc(NC(=S)Nc2ccc(O)cc2)cc1
IC50 [1]: > 50 µM (inactive)
IC50 [2]: 43.1 µM (active)

O=C(CNCc1cccs1)Nc1ccc(S(=O)(=O)N2CCCCC2)cc1
EC50 [3]: > 71.5 µM (inactive)

CCN1CCCC1CNC(=O)CSc1cc(=O)n(CC)c2ccccc12 (configuration not stated)
EC50 [4]: > 79.4 µM (inactive)
EC50 [5]: > 79.4 µM (not active)
EC50 [6]: > 79.4 µM (not active)

Cc1nc2c3cc(F)ccc3n(Cc3ccccc3)c2s1
AC50 [7]: 83.6 µM (active)
EC50 [8]: 39.2 µM (inactive)
EC50 [9]: 57.5 µM (inactive)
AC50 [10]: > 260 µM (inactive)

Cc1cccc2cc3c(N)c(C#N)sc3nc12
EC50 [11]: > 195 µM (not active)
Absolute IC50 (CHOP) [12]: 10 µM
Absolute IC50 (XBP1) [13]: 10 µM
EC50 [14]: > 99 µM (inactive)
EC50 [15]: 43.1 µM (inactive)
AC50 [16]: 2.64 µM (active)
AC50 [17]: 6.95 µM (active)
AC50 [18]: 1.94 µM (active)
AC50 [19]: 5.1 µM (active)

Cc1ccc(OCc2nnc(SCC(=O)O)n2N)cc1
IC50 [1]: > 50 µM (inactive)

C=CCn1c(-c2cc(Cl)ccc2OC)n[nH]c1=S
EC50 [4]: 21.4 µM (inactive)
EC50 [5]: > 79.4 µM (not active)
EC50 [20]: > 112 µM (not active)
EC50 [6]: 28.9 µM (not active)
IC50 [21]: 8.82 µM (active)

CCN1C(=O)/C(=C/C=C2/SCCN2C)SC1=S
EC50 [3]: 1.54 µM (active)
AC50 [22]: 4.47 µM (inconclusive)
